Test results: ChEMBL document CHEMBL1154035, “Synthesis, characterization, and anti-melanoma activity of tetra-O-substituted analogs of nordihydroguaiaretic acid” (Bioorg Med Chem Lett, 2009)

Test system: Mus musculus
Assay: Toxicity in ip dosed mouse
Assay type: organism-based
Conditions: in vivo

SMILES | LD50
CC(Cc1ccc(O)c(O)c1)C(C)Cc1ccc(O)c(O)c1 (configuration not stated) [NORDIHYDROGUAIARETIC ACID] | 75 mg/kg
COc1ccc(C[C@@H](C)[C@@H](C)Cc2ccc(OC)c(OC)c2)cc1OC [TERAMEPROCOL] | 1000 mg/kg
